Patent publication US12139477B2, “Compounds, salts thereof and methods for treatment of diseases” (ACADIA PHARMACEUTICALS INC., priority 2017, dated 2024)

Key:
hERG channel = target: T1, hERG channel (Homo sapiens, UniProt Q12809); test: hERG assay, whole cell recordings in CHO cells (AVIVA); format: cell-based; settings: CHO cells stably expressing hERG, pH 7.4
T1 construct: host or cells: CHO cells, stably transfected
Experimental: The most common mechanism for these adverse events is the inhibition of one or more cardiac potassium channels, in particular hERG. This current is important for cardiac myocyte repolarization and is a common target for drugs that prolong the QT interval. Test articles in this study were therefore characterized to determine their ability to inhibit the hERG channel. Ion channel activity was measured at AVIVA Biosciences Corporation (San Diego, CA), using a stably transfected Chinese Hamster Ovary (CHO) cell line expressing the hERG mRNA.
Cells: AVIVA's CHO cell line, which stably expresses hERG channels, was used for the study. Cells were cultured in DMEM/F12 containing 10% FBS, 1% penicillin/streptomycin and 500 μg/ml G418. Before testing, cells were harvested using Accumax (Innovative Cell Technologies).
Solutions: For electrophysiological recordings, the following solutions were used: External Solution: 2 mM CaCl2); 2 mM MgCl2; 4 mM KCl; 150 mM NaCl; 10 mM Glucose; 10 mM HEPES; 305-315 mOsm; pH 7.4 (adjusted with 5M NaOH); Internal Solution: 140 mM KCl; 10 mM MgCl2; 6 mM EGTA; 5 mM HEPES-Na; 5 mM ATP-Mg; 295-305 mOsm; pH 7.25 (adjusted with 1M KOH).
Electrophysiology: Whole cell recordings were performed using PX 7000A (Axon Instruments) with AVIVA's SealChip™ technology. Cells were voltage clamped at a holding potential of −80 mV. The hERG current was then activated by a depolarizing step to −50 mV for 300 ms. This first step at −50 mV was used as a baseline for measuring peak amplitude of the tail current. Next, a voltage step to +20 mV was applied for 5 s to activate the channels. Finally, a step back to −50 mV for 5 s removed activation and the deactivating tail current was recorded.
Test Article Handling and Dilutions: All test articles were prepared from 10 mM DMSO stock solutions provided by Sponsor. Solutions were mixed by sonication for 20 min, followed by vigorous vortexing. Prior to testing, compounds were diluted to test concentrations in glass vials using External Solution. Dilutions were prepared no longer than 20 min prior to use.
Electrophysiology Procedures: After achieving whole cell configuration, cells were monitored for 90 s to assess stability and then washed with External Solution for 66 s. The voltage protocol previously described was then applied to the cells every 12 s throughout the procedure. Only stable cells with recording parameters above threshold (see Quality Control section) were allowed to enter the drug addition procedure. External solution containing 0.1% DMSO (vehicle) was applied to the cells to establish a baseline. […] Test article solutions were added to cells in 4 separate additions. Cells were kept in test solution until effect of the test article reached steady state, to a maximum of 12 min. Next, 1 μM cisapride (positive control) was added. Finally, washout with External Solution was performed until the recovery current reached steady state.
Data Analysis: Data analysis was performed using DataXpress (Axon Instruments), Clampfit (Axon Instruments) and Origin (OriginLab Corporation) software.

5HT2A = 5HT2A (Homo sapiens, UniProt P28223); test: Receptor Selection and Amplification (R-SAT) functional assay; format: cell-based; set-up: expressed in transfected cells; host or cells: NIH3T3 cells, pSI mammalian expression vector; settings: NIH3T3 cells; Ki from IC50 by Cheng and Prussoff; read-out: 5-HT2a (pKi) (R-SAT) (converted)
5HT2A, sequence (P28223 whole entry): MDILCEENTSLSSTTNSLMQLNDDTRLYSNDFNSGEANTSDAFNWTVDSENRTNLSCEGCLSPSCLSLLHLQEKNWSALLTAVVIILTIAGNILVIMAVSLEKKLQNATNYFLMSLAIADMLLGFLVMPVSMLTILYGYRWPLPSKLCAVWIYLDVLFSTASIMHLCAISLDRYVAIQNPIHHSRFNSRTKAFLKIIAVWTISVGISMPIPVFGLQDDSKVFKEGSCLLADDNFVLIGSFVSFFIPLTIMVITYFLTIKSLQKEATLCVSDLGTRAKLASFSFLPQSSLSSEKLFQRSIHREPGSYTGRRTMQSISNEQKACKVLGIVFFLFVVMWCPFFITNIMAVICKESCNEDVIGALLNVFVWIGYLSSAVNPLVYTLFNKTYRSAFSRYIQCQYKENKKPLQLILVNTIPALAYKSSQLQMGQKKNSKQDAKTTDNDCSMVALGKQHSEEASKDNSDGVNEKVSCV
Excerpt: Receptor Selection and Amplification (R-SAT) Assays. […] The IC50 determined in the RSAT assay was converted into a Ki value using the method of Cheng and Prussoff, Biochem Pharmacol., 1973 Dec. 1; 22(23):3099-108. pKi is the negative of the log(Ki).

T1 sequence (Q12809 whole entry): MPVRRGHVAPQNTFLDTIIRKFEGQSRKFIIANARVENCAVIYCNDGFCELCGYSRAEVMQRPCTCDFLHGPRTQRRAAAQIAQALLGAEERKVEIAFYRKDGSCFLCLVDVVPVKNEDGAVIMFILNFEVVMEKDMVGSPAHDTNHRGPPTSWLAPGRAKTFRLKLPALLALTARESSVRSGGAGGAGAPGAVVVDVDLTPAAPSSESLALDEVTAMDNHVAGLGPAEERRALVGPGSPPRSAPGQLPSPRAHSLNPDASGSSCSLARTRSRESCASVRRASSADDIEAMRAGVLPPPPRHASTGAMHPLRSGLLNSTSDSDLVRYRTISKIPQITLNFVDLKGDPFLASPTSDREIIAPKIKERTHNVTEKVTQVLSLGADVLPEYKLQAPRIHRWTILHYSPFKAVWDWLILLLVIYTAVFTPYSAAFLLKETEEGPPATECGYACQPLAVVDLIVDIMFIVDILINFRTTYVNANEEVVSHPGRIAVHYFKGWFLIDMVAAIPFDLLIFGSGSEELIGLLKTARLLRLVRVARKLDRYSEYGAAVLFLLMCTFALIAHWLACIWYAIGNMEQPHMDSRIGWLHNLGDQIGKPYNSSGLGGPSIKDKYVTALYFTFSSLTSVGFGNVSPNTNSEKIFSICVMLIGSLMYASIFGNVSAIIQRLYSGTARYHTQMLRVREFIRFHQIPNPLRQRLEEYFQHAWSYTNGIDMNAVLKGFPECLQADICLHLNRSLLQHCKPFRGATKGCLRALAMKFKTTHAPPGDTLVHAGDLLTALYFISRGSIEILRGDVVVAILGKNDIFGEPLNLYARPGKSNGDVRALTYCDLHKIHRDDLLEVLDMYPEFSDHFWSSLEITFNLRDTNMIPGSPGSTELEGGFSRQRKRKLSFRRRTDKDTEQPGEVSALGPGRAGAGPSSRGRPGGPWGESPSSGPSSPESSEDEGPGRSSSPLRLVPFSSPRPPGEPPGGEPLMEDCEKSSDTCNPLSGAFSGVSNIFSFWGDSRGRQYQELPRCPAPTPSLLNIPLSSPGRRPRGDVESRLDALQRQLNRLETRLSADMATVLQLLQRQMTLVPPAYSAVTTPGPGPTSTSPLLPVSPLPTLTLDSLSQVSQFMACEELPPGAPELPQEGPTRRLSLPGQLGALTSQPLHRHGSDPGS

Structure (SMILES) | inhibition at 1 µM (hERG channel) [%] | Ki (5HT2A) [nM]
CC(C)COc1ccc(CNC(=O)N(Cc2ccc(F)cc2F)C2CCNCC2)cc1 [Example 4, 1-[(2,4-difluorophenyl)methyl]-3-{[4-(2-methylpropoxy)phenyl]methyl}-1-(piperidin-4-yl)urea] | 11 | 2.51
CC(C)COc1ccc(CNC(=O)N(Cc2ccc(F)cc2)C2CCN(C)CC2)cc1F [Example 6, 3-{[3-fluoro-4-(2-methylpropoxy)phenyl]methyl}-1-[(4-fluorophenyl)methyl]-1-(1-methylpiperidin-4-yl)urea] | 70 | 2
CC(C)COc1ccc(CNC(=O)N(Cc2ccc(F)cc2)C2CCN(C)CC2)c(F)c1 [Example 7, 3-{[2-fluoro-4-(2-methylpropoxy)phenyl]methyl}-1-[(4-fluorophenyl)methyl]-1-(1-methylpiperidin-4-yl)urea] | 87 | 2
CN1CCC(N(Cc2ccc(F)cc2F)C(=O)NCc2ccc3c(c2)CC(C)(C)O3)CC1 [Example 8, 1-[(2,4-difluorophenyl)methyl]-3-[(2,2-dimethyl-2,3-dihydro-1-benzofuran-5-yl)methyl]-1-(1-methylpiperidin-4-yl)urea] | 22 | 0.794
CN1CCC(N(Cc2ccc(F)cc2F)C(=O)NCc2ccc3c(c2)C(C)(C)CO3)CC1 [Example 9, 1-[(2,4-difluorophenyl)methyl]-3-[(3,3-dimethyl-2,3-dihydro-1-benzofuran-5-yl)methyl]-1-(1-methylpiperidin-4-yl)urea] | 63 | 7.94
CN1CCC(N(Cc2ccc(F)cc2F)C(=O)NCc2ccc3c(c2)CCO3)CC1 [Example 10, 1-[(2,4-difluorophenyl)methyl]-3-[(2,3-dihydro-1-benzofuran-5-yl)methyl]-1-(1-methylpiperidin-4-yl)urea] | 10 | 1
CC(C)COc1ccc(CNC(=O)N(Cc2ccc(F)cc2O)C2CCN(C)CC2)cc1 [Example 13, 1-[(4-fluoro-2-hydroxyphenyl)methyl]-1-(1-methylpiperidin-4-yl)-3-{[4-(2-methylpropoxy)phenyl]methyl}urea] | 34 | 0.0794
CC(C)COc1ccc(CNC(=O)N(Cc2ccc(F)cc2)C2CCN(C)CC2)c(O)c1 [Example 14, 1-[(4-fluorophenyl)methyl]-3-{[2-hydroxy-4-(2-methylpropoxy)phenyl]methyl}-1-(1-methylpiperidin-4-yl)urea] | 77 | 1.58
CN1CCC(N(Cc2ccc(F)cc2F)C(=O)NCc2ccc(OCCF)cc2)CC1 [Example 15, 1-[(2,4-difluorophenyl)methyl]-3-{[4-(2-fluoroethoxy)phenyl]methyl}-1-(1-methylpiperidin-4-yl)urea] | 19 | 3.16
CCOc1ccc(CNC(=O)N(Cc2ccc(F)cc2F)C2CCN(C)CC2)cc1 [Example 16, 1-[(2,4-difluorophenyl)methyl]-3-[(4-ethoxyphenyl)methyl]-1-(1-methylpiperidin-4-yl)urea] | 29 | 2
CN1CCC(N(Cc2ccc(F)cc2F)C(=O)NCc2ccc(OC(C)(C)C)cc2)CC1 [Example 18, 3-{[4-(tert-butoxy)phenyl]methyl}-1-[(2,4-difluorophenyl)methyl]-1-(1-methylpiperidin-4-yl)urea] | 17 | 0.316
C=CCOc1ccc(CNC(=O)N(Cc2ccc(F)cc2F)C2CCN(C)CC2)cc1 [Example 19, 3-(4-(allyloxy)benzyl)-1-(2,4-difluorobenzyl)-1-(1-methylpiperidin-4-yl)urea] | 33 | 1.58
CN1CCC(N(Cc2ccc(F)cc2F)C(=O)NCc2ccc3occc3c2)CC1 [Example 20, 3-[(1-benzofuran-5-yl)methyl]-1-[(2,4-difluorophenyl)methyl]-1-(1-methylpiperidin-4-yl)urea] | 30 | 1.58
Cc1nc2cc(CNC(=O)N(Cc3ccc(F)cc3F)C3CCN(C)CC3)ccc2o1 [Example 22] | 10 | –
Cc1noc2ccc(CNC(=O)N(Cc3ccc(F)cc3F)C3CCN(C)CC3)cc12 [Example 28] | 32 | 3.98
CN1CCC(N(Cc2ccc(F)cc2F)C(=O)NCc2ccc3c(c2)n(C)c(=O)n3C)CC1 [Example 40] | 9 | –
CN1CCC(N(Cc2ccc(F)cc2F)C(=O)NCc2ccc3cn[nH]c3c2)CC1 [Example 41] | 23 | –
CN1CCC(N(Cc2ccc(F)cc2F)C(=O)NCc2ccc3c(c2)OCCOC3)CC1 [Example 52] | 8 | 39.8
CN1CCC(N(Cc2ccc(F)cc2F)C(=O)NCc2ccc3c(c2)ncn3C)CC1 [Example 55] | 10 | –
CC(C)Oc1ccc(CNC(=O)N(Cc2ccc(F)cc2Cl)C2CCN(C)CC2)cc1 [Example 61] | 23 | 15.8
CC(C)COc1ccc(CNC(=O)N(Cc2ccc(F)cc2Cl)C2CCN(C)CC2)cc1 [Example 62] | 32 | 79.4
CCCOc1ccc(CNC(=O)N(Cc2ccc(F)cc2F)C2CCNCC2)cc1 [Example 76, 1-[(2,4-difluorophenyl)methyl]-1-(piperidin-4-yl)-3-[(4-propoxyphenyl)methyl]urea; Trifluoroacetic Acid] | 12 | 3.98
CC(=O)Oc1cc(F)ccc1CN(C(=O)NCc1ccc(OCC(C)C)cc1)C1CCN(C)CC1 [Example 92, 5-fluoro-2-{[1-(1-methylpiperidin-4-yl)({[4-(2-methylpropoxy)-phenyl]methyl}carbamoyl)amino]methyl}phenyl acetate; Trifluoroacetic Acid] | 45 | 0.316
CN1CCC(N(Cc2ccc(F)cc2F)C(=O)NCc2ccc3c(c2)COC3)CC1 [Example 95, 1-[(2,4-difluorophenyl)methyl]-3-[(1,3-dihydro-2-benzofuran-5-yl)methyl]-1-(1-methylpiperidin-4-yl)urea; Trifluoroacetic Acid] | 8 | 50.1
COc1cc(CNC(=O)N(Cc2ccc(F)cc2F)C2CCN(C)CC2)ccc1Cl [Example 98, 3-[(4-chloro-3-methoxyphenyl)methyl]-1-[(2,4-difluorophenyl)methyl]-1-(1-methylpiperidin-4-yl)urea; Trifluoroacetic Acid] | 62 | 3.16
CC(C)COc1ccc(CNC(=O)N(Cc2ccc(Cl)cc2Cl)C2CCN(C)CC2)cc1 [Example 107, 1-[(2,4-dichlorophenyl)methyl]-1-(1-methylpiperidin-4-yl)-3-{[4-(2-methylpropoxy)phenyl]methyl}urea] | 43 | 126
Cc1ccc(CN(C(=O)NCc2ccc(OC(C)C)cc2)C2CCN(C)CC2)c(F)c1 [Example 115, 1-[(2-fluoro-4-methylphenyl)methyl]-1-(1-methylpiperidin-4-yl)-3-{[4-(propan-2-yloxy)phenyl]methyl}urea; Trifluoroacetic Acid] | 49 | 0.316
COc1ccc(CNC(=O)N(Cc2ccc(F)cc2F)C2CCN(C)CC2)cc1 [Example 125, 3-[(2,4-difluorophenyl)methyl]-1-[(4-methoxyphenyl)methyl]-3-(1-methylpiperidin-4-yl)urea] | 17 | 3.98
COc1cc(F)c(F)cc1CN(C(=O)NCc1ccc(OC(C)C)cc1)C1CCN(C)CC1 [Example 138, 1-[(4,5-difluoro-2-methoxyphenyl)methyl]-1-(1-methylpiperidin-4-yl)-3-{[4-(propan-2-yloxy)phenyl]methyl}urea; Trifluoroacetic Acid] | 13 | –
